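96-well plates; 48 h exposure; 5 concentrations. Endpoints by linear interpolation between flanking doses. Not reached: highest tested concentration assigned. Abbreviation: GI50, concentration required for 50% inhibition of growth.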 The source made the active and inactive calls. Cut-off read from the data, not from the text of the source: active = GI50 up to about 1.1 µM and inactive = higher.
What was measured:
Experiment in all cases: NCI-60 cell line screen, 48 h
LOX IMVI = test system: LOX IMVI
SK-MEL-5 = test system: SK-MEL-5
OVCAR-5 = test system: OVCAR-5
A498 = test system: A498
NCI-H226 = test system: NCI-H226
OVCAR-8 = test system: OVCAR-8
COLO 205 = test system: COLO 205
A549 = test system: A549
TK-10 = test system: TK-10
SK-MEL-2 = test system: SK-MEL-2
SR = test system: SR
KM12 = test system: KM12
SK-MEL-28 = test system: SK-MEL-28
SNB-19 = test system: SNB-19
RXF 393 = test system: RXF 393
HCC 2998 = test system: HCC 2998

Measured: GI50

CSc1nc2c(c(O)c(C)c(=O)n2C2OCC(OC(C)=O)C(OC(C)=O)C2OC(C)=O)c(=O)n1C (stereo not drawn)
inactive: LOX IMVI > 100 µM | SK-MEL-5 > 100 µM | OVCAR-5 > 100 µM | A498 > 100 µM | NCI-H226 > 100 µM | OVCAR-8 > 100 µM | COLO 205 > 100 µM | A549 > 100 µM | TK-10 > 100 µM | SK-MEL-2 > 100 µM | SR > 100 µM | KM12 > 100 µM | SK-MEL-28 > 100 µM | SNB-19 > 100 µM

N=C(N)/N=C(/C=C/c1ccccc1)CC1OC(=O)c2ccccc21 (stereo not drawn)
inactive: LOX IMVI > 100 µM | SK-MEL-5 > 100 µM | RXF 393 > 100 µM | A498 > 100 µM | NCI-H226 > 100 µM | OVCAR-8 > 100 µM | COLO 205 > 100 µM | A549 > 100 µM | SK-MEL-2 > 100 µM | SR > 100 µM | KM12 > 100 µM | SNB-19 > 100 µM | HCC 2998 > 100 µM

COc1cc2cc3c4c(cc(OC)c(OC)c4c2cc1OC)CCN3C(=O)CCCC(=O)O
inactive: LOX IMVI > 100 µM | SK-MEL-5 > 100 µM | OVCAR-5 > 100 µM | RXF 393 > 100 µM | A498 > 100 µM | NCI-H226 > 100 µM | COLO 205 > 100 µM | A549 > 100 µM | TK-10 > 100 µM | SK-MEL-2 > 100 µM | SR > 100 µM | KM12 > 100 µM | SK-MEL-28 > 100 µM | SNB-19 > 100 µM | HCC 2998 > 100 µM

COc1ccc(NC(=O)C2=CC(=O)c3ccc(O)cc3C2=O)c(OC)c1
inactive: LOX IMVI > 100 µM | SK-MEL-5 > 100 µM | OVCAR-5 > 100 µM | RXF 393 > 100 µM | A498 > 100 µM | NCI-H226 > 100 µM | OVCAR-8 > 100 µM | COLO 205 > 100 µM | A549 > 100 µM | TK-10 > 100 µM | SR > 100 µM | KM12 > 100 µM | SK-MEL-28 > 100 µM | SNB-19 > 100 µM | HCC 2998 > 100 µM

C/C=C1\CCC2c3[nH]c4ccccc4c3CCN2C1 (stereo not drawn)
inactive: SK-MEL-5 51.2 µM | RXF 393 66.4 µM | A498 > 100 µM | NCI-H226 31 µM | OVCAR-8 > 100 µM | A549 > 100 µM | TK-10 > 100 µM | SK-MEL-2 > 100 µM | SR 55.5 µM | KM12 > 100 µM | SK-MEL-28 > 100 µM | SNB-19 > 100 µM

CCOC(=O)/C(=C/c1ccccc1)N(CC)CC
inactive: LOX IMVI 94.4 µM | SK-MEL-5 > 100 µM | OVCAR-5 > 100 µM | A498 > 100 µM | NCI-H226 > 100 µM | OVCAR-8 > 100 µM | COLO 205 > 100 µM | A549 > 100 µM | TK-10 > 100 µM | SK-MEL-2 > 100 µM | SR > 100 µM | KM12 > 100 µM | SK-MEL-28 > 100 µM | SNB-19 > 100 µM | HCC 2998 > 100 µM

N#C/C(=C\c1ccc[nH]1)C(=O)c1ccccc1
inactive: LOX IMVI > 100 µM | SK-MEL-5 > 100 µM | OVCAR-5 > 100 µM | RXF 393 58.9 µM | NCI-H226 > 100 µM | OVCAR-8 > 100 µM | COLO 205 > 100 µM | A549 > 100 µM | TK-10 > 100 µM | SK-MEL-2 > 100 µM | SR > 100 µM | KM12 > 100 µM | SK-MEL-28 > 100 µM | SNB-19 > 100 µM | HCC 2998 > 100 µM

COc1ccc(CCN(C)C2CCC(C#N)(c3ccc(OC)c(OC)c3)CC2)cc1OC (stereo not drawn)
inactive: LOX IMVI > 100 µM | SK-MEL-5 56.9 µM | OVCAR-5 > 100 µM | RXF 393 > 100 µM | NCI-H226 > 100 µM | OVCAR-8 > 100 µM | COLO 205 26.7 µM | A549 > 100 µM | TK-10 > 100 µM | SK-MEL-2 > 100 µM | SR > 100 µM | KM12 > 100 µM | SK-MEL-28 83.8 µM | SNB-19 > 100 µM | HCC 2998 34.8 µM

Nc1ccc(CCN2CCN(c3cccc(C(F)(F)F)c3)CC2)cc1
inactive: LOX IMVI > 100 µM | SK-MEL-5 55.2 µM | OVCAR-5 > 100 µM | RXF 393 89.5 µM | A498 80.9 µM | NCI-H226 91.4 µM | OVCAR-8 > 100 µM | COLO 205 > 100 µM | A549 > 100 µM | TK-10 > 100 µM | SR 58.5 µM | KM12 > 100 µM | SK-MEL-28 > 100 µM | SNB-19 > 100 µM | HCC 2998 17.3 µM

O=C(Nc1ccc(Cl)cc1)C1C(=O)C(=O)N(c2ccc(Cl)cc2)C1=O (stereo not drawn)
inactive: LOX IMVI > 100 µM | SK-MEL-5 > 100 µM | OVCAR-5 > 100 µM | RXF 393 > 100 µM | A498 60.7 µM | NCI-H226 > 100 µM | OVCAR-8 > 100 µM | COLO 205 > 100 µM | A549 > 100 µM | TK-10 > 100 µM | SK-MEL-2 38.6 µM | SR > 100 µM | KM12 > 100 µM | SK-MEL-28 > 100 µM | SNB-19 76.7 µM

COc1cc(CC2c3cc(OC)c(OC)cc3CCN2C)c(C(=O)O)cc1OC (stereo not drawn)
inactive: LOX IMVI > 100 µM | SK-MEL-5 > 100 µM | OVCAR-5 > 100 µM | RXF 393 > 100 µM | A498 > 100 µM | NCI-H226 > 100 µM | OVCAR-8 > 100 µM | COLO 205 > 100 µM | A549 > 100 µM | TK-10 > 100 µM | SK-MEL-2 > 100 µM | SR > 100 µM | KM12 > 100 µM | SK-MEL-28 > 100 µM | SNB-19 > 100 µM | HCC 2998 > 100 µM

CCC1CC(C)=CCN1S(=O)(=O)c1ccc(C)cc1 (stereo not drawn)
inactive: LOX IMVI 15.9 µM | SK-MEL-5 13.9 µM | OVCAR-5 28 µM | A498 42.6 µM | NCI-H226 28.2 µM | OVCAR-8 36.5 µM | COLO 205 16.5 µM | A549 21.5 µM | SK-MEL-2 11 µM | SR 5.66 µM | KM12 23.4 µM | SNB-19 28.8 µM

CCCCCCCCCCCCCCCc1ccc(OCC(O)CO)cc1 (stereo not drawn)
inactive: LOX IMVI 18.2 µM | SK-MEL-5 34 µM | OVCAR-5 > 100 µM | RXF 393 18.7 µM | A498 89.5 µM | NCI-H226 25.7 µM | OVCAR-8 25.7 µM | COLO 205 23.6 µM | A549 22.6 µM | TK-10 > 100 µM | SK-MEL-2 18.9 µM | SR > 100 µM | KM12 17.2 µM | SK-MEL-28 25.6 µM | SNB-19 40.1 µM | HCC 2998 22.9 µM

Source: ChEMBL document CHEMBL1201862, “PubChem BioAssay data set” (2004)
